This note sets out measurements from patent US20130190190A1, “MOLECULAR TARGETS FOR MODULATING INTRAOCCULAR PRESSURE AND DIFFERENTIATION OF STEROID RESPONSES VERSUS NON-RESPONDERS” (priority 2007, published 2013).

The nature of this data set: Intraocular pressure (IOP) change in study eyes of patients after a single intravitreal triamcinolone acetonide (IVTA) injection. The following applies: 56 eyes. Format: in vivo, human. As for the experimental part: Patients who were recruited were offered treatment with IVTA for various retinal diseases or who had received IVTA in the past. Each patient was treated with IVTA, 4 mg in 0.1 cc, for a variety of indications, at the discretion of the treating physician. Inclusion criteria included age greater than 18 years and the ability to give appropriate informed consent. Exclusion criteria included prior pars plana vitrectomy in the study eye, anterior-segment neovascularization in the study eye, the use of any medication intended to lower IOP in the study eye, or a history of glaucoma, suspected glaucoma, or ocular hypertension in the study eye. All IOP measurements were as per the treating physician's standard practice, typically either applanation tonometry or Tono-pen (Reichert, Depew, N.Y.). No standardized IOP measurement protocol was followed. Intraocular pressure (TOP) was recorded in the study eye prior to treatment with IVTA (baseline IOP). Follow-up was performed at the discretion of the treating physician. On each subsequent visit, IOP was recorded (follow-up IOP) for up to 1 year, or until the study eye was treated with any subsequent intraocular surgery, any subsequent intravitreal injection, or any medication intended to lower IOP. Therefore, during the time period relevant to this study, each eye received only one intravitreal injection. All treatment decisions were at the discretion of the treating physician. The highest follow-up IOP was recorded (maximum IOP). The primary outcome measure was the difference between maximum IOP and baseline IOP was calculated (A IOP), with a positive value indicating a rise in IOP.

For the molecule `CC1(C)O[C@@H]2C[C@H]3[C@@H]4CCC5=CC(=O)C=C[C@]5(C)[C@@]4(F)[C@@H](O)C[C@]3(C)[C@]2(C(=O)CO)O1` [IVTA, triamcinolone acetonide], where the note is “IVTA 4 mg in 0.1 cc intravitreal, follow-up up to 1 year, positive value = rise in IOP”, the “Mean Δ IOP (maximum IOP minus baseline IOP)” value is listed as 7 mmHg. Besides, where the note is “IVTA 4 mg intravitreal, follow-up up to 1 year, 9 eyes”, the “Eyes with Δ IOP greater than 10 mmHg” value worked out at 16%. For the setting “IVTA 4 mg intravitreal, follow-up up to 1 year, 20 eyes”, the “Eyes with Δ IOP less than 5 mmHg” value stood at 36%. Under “IVTA 4 mg intravitreal, follow-up up to 1 year, 27 eyes”, the “Eyes with Δ IOP 5-10 mmHg” value was determined as 48%. Besides, the “Mean maximum follow-up IOP” value (patients with retinal diseases, IVTA 4 mg in 0.1 cc, one intravitreal injection, highest IOP in follow-up up to 1 year, mean baseline IOP 15 mmHg) came to 22 mmHg.
